Tests used:
[1] = cytotoxicity assay (MTT, CC50); assay type: cell-based; conditions: human, HepDE19 cells
Protocol: (§1) Cell plates were then incubated with compound dilutions and controls as described above, and addition of 3-[4,5-dimethylthiazol-2-yl]-2,5-diphenyltetrazolium bromide (MTT, Sigma-Aldrich) was added to a final concentration of 0.5 mg/ml (Mosmann, T. 1983). Plates were again incubated at 37° C. for 4 hrs, after which 10% SDS/0.01N HCl was added to each well in a volume equal to the medium (100 μl), followed by overnight incubation. Absorbance was read in the Rainbow spectrophotometer (Tecan US Inc., Durham, N.C.) at 570 nm (reference wavelength of 630 nm), and analyzed with XLfit 4.0 as described above.

[2] = tested on: HBV RNA and core DNA; experiment: viral RNA and core DNA in HepDES19 cells (Northern/Southern blot); assay type: cell-based, hepatitis B virus; conditions: for reduction of viral RNA and DNA replicative intermediates: day 12, high concentrations; for steady state levels of HBV RNA and core DNA: early time point (day 4) of treatment
Text: Viral nucleic acid analysis: Total cellular RNA was extracted with TRIzol reagent (Invitrogen, Grand Island, N.Y.) by following manufacturer's directions. Ten microgram of total cellular RNA was resolved in 1.5% agarose gel containing 2.2 M formaldehyde and transferred onto Hybond-XL membrane (GE Healthcare, Piscataway, N.J.) in 20×SSC buffer. Intracellular hepadnaviral core DNA and cccDNA (Hirt DNA) were extracted as described previously (Guo, H., D. Jiang, T. Zhou, A. Cuconati, T. M. Block, and J. T. Guo. 2007. Guo, H., D. Jiang, T. Zhou, A. Cuconati, T. M. Block, and J. T. Guo. 2007. Guo, H., R. Mao, T. M. Block, and J. T. Guo. 2010. Guo, H., W. S. Mason, C. E. Aldrich, J. R. Saputelli, D. S. Miller, A. R. Jilbert, and J. E. Newbold. 2005). Half of the DNA samples recovered from one well of a 6-well-plate were resolved by electrophoresis into a 1.2% agarose gel and blotted onto Hybond-XL membrane. Membranes were probed with either an α-^32P-UTP (800 Ci/mmol, Perkin Elmer) labeled hepadnaviral minus (detecting DNA) or plus strand (detecting RNA) specific full-length riboprobe and exposed to a phosphorimager screen (Fuji Film, Tokyo, Japan). Hybridization signals were visualized by Typhoon FLA-7000 (GE Healthcare) and quantified with ImageQuantTL software (GE Healthcare).
Identification of compounds that inhibits cccDNA accumulation in HepDES19 cells: Compounds were tested on HepDES19 cells, which have a higher level of cccDNA production than HepDE19 cells (Guo, H., D. Jiang, T. Zhou, A. Cuconati, T. M. Block, and J. T. Guo. 2007). Briefly, after withdrawal of tetracycline, HepDES19 cells were left untreated, or were treated with compound at serial concentrations; tetracycline-free media was changed every other day with fresh compound supplementation. The concentration of DMSO in all experimental groups was normalized at 0.1%. […] Shorter exposure of the Hirt DNA blot was used for the quantitative determination of DP-rcDNA signals. […] The reduction between DP-rcDNA and cccDNA was proportional compared with untreated control. […] Liu, C. P. Hu, and C. Chang. 2005. Guo, H., T. Zhou, D. Jiang, A. Cuconati, G. H. Xiao, T. M. Block, and J. T. Guo. 2007. Zhou, T., H. Guo, J. T. Guo, A. Cuconati, A. Mehta, and T. M. Block. 2006).

[3] = tested on: HepDE19 cells; experiment: cytotoxicity assay (MTT, CC50); assay type: cell-based
Protocol: as §1

Cc1nc2cc(NC(=O)c3ccc(S(=O)(=O)N(C)Cc4ccccc4)cc3)ccc2s1 [CCC-0346, 4-(Benzyl-methyl-sulfamoyl)-N-(2-methyl-benzothiazol-5-yl)-benzamide]
CC50 [1]: 3000 nM
reduction of viral RNA and DNA replicative intermediates [2]: slight reduction
steady state levels of HBV RNA and core DNA [2]: did not reduce

O=C(CN(c1cc(C(F)(F)F)ccc1Cl)S(=O)(=O)c1ccccc1)NCc1ccncc1 [CCC-0975, 2-[Benzenesulfonyl-(2-chloro-5-trifluoromethyl-phenyl)-amino]-N-pyridin-4-ylmethyl-acetamide]
CC50 [3]: > 50000 nM
reduction of viral RNA and DNA replicative intermediates [2]: slight reduction
steady state levels of HBV RNA and core DNA [2]: did not reduce

— US9657013B2, “Inhibitors of hepatitis B virus covalently closed circular DNA formation and their method of use” (priority 2012, dated 2017)
